Assay results: patent US8586612B2, “Piperidinesulfonylureas and -thioureas, their preparation, their use and pharmaceutical compositions comprising them” (Sanofi-Aventis Deutschland GmbH, priority 2004, dated 2013)

How the values were obtained:
[1] = system: guinea pig papillary muscle; experiment: Effect on the action potential duration (APD90) on the guinea pig papillary muscle under hypoxia; conditions: test substance 2 μmol/l in bath, 60 minutes after addition; 100% = APD90 under hypoxia before substance, 0% = normoxic APD90
Description: 1) Effect on the Action Potential Duration on the Guinea Pig Papillary Muscle
ATP deficiency states like those observed in the cardiomyocyte during an ischemia lead to a shortening of the action potential duration. They are regarded as one of the causes of so-called reentry arrhythmias, which can cause sudden cardiac death. The opening of ATP-sensitive potassium channels through the lowering of the ATP level is regarded as the cause thereof (ATP=adenosine triphosphate). For measuring the action potential on the guinea pig papillary muscle, a standard microelectrode technique was employed.
Guinea pigs of both sexes were sacrificed by a blow to the head, the heart was removed, and the papillary muscles were dissected out and suspended in an organ bath. The organ bath was rinsed with Ringer's solution (136 mmol/l NaCl, 3.3 mmol/l KCl, 2.5 mmol/l CaCl2, 1.2 mmol/l KH2PO4, 1.1 mmol/l MgSO4, 5.0 mmol/l glucose, 10.0 mmol/l 1-(2-hydroxyethyl)piperazine-4-(2-ethanesulfonic acid) (HEPES), pH adjusted to 7.4 with NaOH) and aerated with 100% oxygen at a temperature of 37° C. The muscle was stimulated via an electrode with square-wave pulses of 1 V and 1 ms duration and a frequency of 1 Hz. The action potential was derived through a glass microelectrode which is inserted intracellularly and filled with 3 mol/l KCl solution, and was recorded. The action potential was amplified using an amplifier from Hugo Sachs (March-Hugstetten, Germany) and stored and evaluated by a computer. The duration of the action potential was determined at a degree of repolarization of 90% (APD90). The shortening of the action potential was induced after an equilibration time of 30 minutes by rinsing the papillary muscle with a hypoxic solution. For this, the glucose was removed, the HEPES buffer replaced by PIPES buffer (piperazine-1,4-bis(2-ethanesulfonic acid)), the pH adjusted to 6.5 and aeration was carried out with 100% nitrogen. This led after a period of 60 minutes to a marked shortening of the APD90. After this time, the test substance was added in the form of a stock solution in propanediol, so that the concentration of the substance in the bath solution was 2 μmol/l. After a further 60 minutes, the re-prolongation of the action potential again recorded. The table below indicates the overall shortening, resulting after hypoxia and addition of test substance, of the APD90 value in percent, i.e. the percentage shortening of the APD90 still remaining after addition of the test substance under hypoxia, where 100% corresponds to the APD90 value under hypoxic conditions before addition of the test substance and 0% corresponds to the APD90 value under normoxic conditions at the start of the experiment.

hSUR1/hKir6.2 = hSUR1/hKir6.2 (Homo sapiens, UniProt Q09428); experiment: Effect on membrane potential of hSUR1/hKir6.2-transfected CHO cells (hypoglycemic effect), DiBAC4 fluorescence, FLIPR; format: cell-based; conditions: CHO cells activated with diaxozide, averages of at least 4 experiments
hSUR1/hKir6.2, sequence (Q09428 whole entry): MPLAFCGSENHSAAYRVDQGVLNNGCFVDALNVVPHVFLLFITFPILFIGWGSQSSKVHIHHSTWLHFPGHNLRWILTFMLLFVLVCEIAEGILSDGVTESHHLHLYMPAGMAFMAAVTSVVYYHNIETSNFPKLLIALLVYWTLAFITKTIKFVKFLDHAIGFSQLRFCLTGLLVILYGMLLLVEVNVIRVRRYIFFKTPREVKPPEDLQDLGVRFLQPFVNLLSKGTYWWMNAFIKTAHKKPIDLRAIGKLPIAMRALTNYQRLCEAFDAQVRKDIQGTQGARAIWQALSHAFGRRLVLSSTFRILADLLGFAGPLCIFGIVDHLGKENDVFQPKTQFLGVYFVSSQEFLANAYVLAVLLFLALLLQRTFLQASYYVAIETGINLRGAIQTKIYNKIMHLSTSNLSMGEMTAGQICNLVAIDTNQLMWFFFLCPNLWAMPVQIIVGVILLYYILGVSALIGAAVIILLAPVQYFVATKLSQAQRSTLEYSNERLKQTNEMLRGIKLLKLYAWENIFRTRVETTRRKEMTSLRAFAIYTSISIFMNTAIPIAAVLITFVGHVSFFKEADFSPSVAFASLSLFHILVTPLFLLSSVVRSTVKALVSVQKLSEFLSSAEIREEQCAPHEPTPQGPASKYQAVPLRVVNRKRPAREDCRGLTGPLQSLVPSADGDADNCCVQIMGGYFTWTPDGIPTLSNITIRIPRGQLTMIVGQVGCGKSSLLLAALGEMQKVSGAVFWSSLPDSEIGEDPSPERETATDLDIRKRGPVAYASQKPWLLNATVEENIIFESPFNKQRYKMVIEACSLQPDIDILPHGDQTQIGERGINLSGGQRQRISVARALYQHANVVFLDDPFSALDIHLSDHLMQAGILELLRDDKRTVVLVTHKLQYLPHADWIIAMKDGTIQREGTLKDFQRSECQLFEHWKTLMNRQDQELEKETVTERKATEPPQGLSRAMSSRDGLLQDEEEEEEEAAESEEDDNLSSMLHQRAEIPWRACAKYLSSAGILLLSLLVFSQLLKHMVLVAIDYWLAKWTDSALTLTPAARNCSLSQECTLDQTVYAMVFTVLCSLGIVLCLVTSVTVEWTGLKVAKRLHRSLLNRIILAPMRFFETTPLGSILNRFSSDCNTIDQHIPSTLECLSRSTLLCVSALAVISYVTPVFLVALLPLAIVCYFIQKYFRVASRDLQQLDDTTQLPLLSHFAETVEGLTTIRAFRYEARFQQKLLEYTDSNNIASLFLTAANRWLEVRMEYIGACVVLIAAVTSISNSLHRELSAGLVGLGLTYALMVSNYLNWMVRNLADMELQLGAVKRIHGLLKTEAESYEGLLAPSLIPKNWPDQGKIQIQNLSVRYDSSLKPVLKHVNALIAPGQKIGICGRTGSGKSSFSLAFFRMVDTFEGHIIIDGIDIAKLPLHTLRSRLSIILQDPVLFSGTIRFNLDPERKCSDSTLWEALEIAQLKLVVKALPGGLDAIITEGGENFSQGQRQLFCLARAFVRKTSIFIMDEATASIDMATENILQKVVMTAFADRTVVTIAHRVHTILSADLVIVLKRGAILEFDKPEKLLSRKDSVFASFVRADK
hSUR1/hKir6.2, sequence (Q14654 whole entry partner): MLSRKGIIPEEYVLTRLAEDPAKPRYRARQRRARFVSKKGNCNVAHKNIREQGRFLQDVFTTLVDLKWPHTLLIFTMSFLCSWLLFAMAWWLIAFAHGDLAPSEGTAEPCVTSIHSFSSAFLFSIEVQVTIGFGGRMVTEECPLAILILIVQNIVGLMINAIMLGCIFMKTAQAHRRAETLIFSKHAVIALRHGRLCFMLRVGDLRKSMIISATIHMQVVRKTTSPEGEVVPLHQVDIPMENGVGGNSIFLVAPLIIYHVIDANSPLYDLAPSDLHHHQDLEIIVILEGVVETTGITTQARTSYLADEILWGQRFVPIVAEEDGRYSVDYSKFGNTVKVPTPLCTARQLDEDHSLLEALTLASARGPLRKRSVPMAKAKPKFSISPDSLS
Description: 2) Effect on hSUR1/hKir6.2-Transfected CHO Cells (Hypoglycemic Effect)
The target organ of these compounds is the β cell of the pancreas, where they block ATP-sensitive potassium channels and bring about, through influencing the electric potential of the cell membrane, a release of the blood sugar-lowering hormone insulin. […] The extent of this depolarization of the cell membrane caused by the compounds according to the invention was investigated on CHO cells which were transfected with the cloned components of human pancreatic ATP-sensitive potassium channels, hSUR1 and hKir6.2, and were activated by pretreatment with diaxozide, an opener of ATP-sensitive potassium channels. The strength of action of a compound on the membrane potential of these transfected and activated CHO cells is a measure of the blood sugar-lowering potential of this compound.
On the day of the measurement, the microtiter plates were washed three times with PBS (physiological buffer solution). 90 μl remained in each well at the last washing step. The cells were then loaded with the fluorescent dye DiBAC4 (Molecular Probes, Portland, Oreg., USA) by adding 90 μl of a 10 micromolar solution of DIBAC4 in PBS and 90 μl of a 400-micromolar solution of diaxozide in PBS to each well. After an incubation time of 30 minutes at 37° C., the microtiter plates were then transferred into a Fluorescent Microtiter Plate Reader (FLIPR; Molecular Devices, Sunnyvale, Calif., USA). The cells were excited using an argon laser (Innova 90; Coherent, Santa Clara, Calif., USA) at a wavelength of 488 nm, and the fluorescence emission was measured using a CCD camera. Measurement of the membrane potential began after 4 minutes by adding 20 μl of a solution of the test substance or of the control solution to each well, measuring the resulting fluorescence emission every 20 seconds over a period of 20 minutes. The data listed below are averages of at least 4 experiments.

guinea pig heart = experiment: Effect on coronary flow under hypoxic conditions in the isolated perfused Langendorff guinea pig heart; conditions: 1 μM in perfusate, added 10 minutes before hypoxia; averages of 3 hearts
Description: 3) Effect on Coronary Flow Under Hypoxic Conditions in the Guinea Pig Heart
It is known that an oxygen deficiency in coronary vessels leads to a reflectory dilatation of the vessels in order to compensate the oxygen deficiency. The vascular KATP channel (SUR2B/Kir6.2) plays an important part in this. Its opening leads to hyperpolarization of the cell membrane of the smooth muscle cell and consequently to a reduced calcium influx, resulting in a dilatation of the vessel. Blockade of the vascular KATP channel inhibits the widening of the vessel and thus adjustment of the coronary flow under hypoxic conditions. The test model used for determining the coronary flow was an isolated perfused Langendorff heart of a guinea pig.
Guinea pigs of both sexes were sacrificed by a blow to the head. The heart was quickly removed, and the aorta was canulated. After the canulation, the heart was suspended in the perfusion solution in the Langendorff apparatus, and a latex balloon was inserted into the left ventricle. The coronary flow was recorded using a flow transducer, type E, from Hellige (Freiburg, Germany). The heart was perfused with a constant pressure of 55 mm Hg. Hypoxia was induced by changing the aeration from 95% oxygen/5% carbon dioxide (=normoxia) to 20% oxygen/75% nitrogen/5% carbon dioxide. […]

SMILES: CCNC(=S)NS(=O)(=O)N1CCC(CCNC(=O)c2cc(Cl)ccc2OC)CC1 [Example 2, 5-Chloro-2-methoxy-N-(2-(1-(3-ethylthioureidosulfonyl)piperidin-4-yl)ethyl)benzamide]
- Remaining shortening of the APD90 under hypoxia in percent [1]: 82%
- hSUR1/hKir6.2 blockade at 0.1 μM (hSUR1/hKir6.2): <1%
- hSUR1/hKir6.2 blockade at 1 μM (hSUR1/hKir6.2): 4%
- hSUR1/hKir6.2 blockade at 10 μM (hSUR1/hKir6.2): 67%

SMILES: COc1ccc(Cl)cc1C(=O)NCCc1ccc(S(=O)(=O)NC(=O)NC2CCCCC2)cc1 [Comparison (1), glibenclamide, reference compound]
- Hypoxic coronary flow compared with the control in percent (guinea pig heart): 35%

SMILES: CCCNC(=S)NS(=O)(=O)N1CCC(CCNC(=O)c2cc(Cl)ccc2OC)CC1 [Example 3, 5-Chloro-2-methoxy-N-(2-(1-(3-propylthioureidosulfonyl)piperidin-4-yl)ethyl)benzamide]
- Remaining shortening of the APD90 under hypoxia in percent [1]: 67%
- hSUR1/hKir6.2 blockade at 0.1 μM (hSUR1/hKir6.2): 5%
- hSUR1/hKir6.2 blockade at 1 μM (hSUR1/hKir6.2): 55%
- hSUR1/hKir6.2 blockade at 10 μM (hSUR1/hKir6.2): 89%

SMILES: CNC(=O)NS(=O)(=O)N1CCC(CCNC(=O)c2cc(Cl)ccc2OC)CC1 [Example 7, 5-Chloro-2-methoxy-N-(2-(1-(3-methylureidosulfonyl)piperidin-4-yl)ethyl)benzamide]
- Remaining shortening of the APD90 under hypoxia in percent [1]: 68%
- hSUR1/hKir6.2 blockade at 0.1 μM (hSUR1/hKir6.2): <1%
- hSUR1/hKir6.2 blockade at 1 μM (hSUR1/hKir6.2): 15%
- hSUR1/hKir6.2 blockade at 10 μM (hSUR1/hKir6.2): 60%

SMILES: COc1ccc(Cl)cc1C(=O)NCCC1CCN(S(=O)(=O)NC(=O)NC2CC2)CC1 [Example 11, 5-Chloro-2-methoxy-N-(2-(1-(3-cyclopropylureidosulfonyl)piperidin-4-yl)ethyl)benzamide]
- melting point: 138 to 139 °C

SMILES: CCCNC(=O)NS(=O)(=O)N1CCC(CCNC(=O)c2cc(Cl)ccc2OC)CC1 [Example 9, 5-Chloro-2-methoxy-N-(2-(1-(3-propylureidosulfonyl)piperidin-4-yl)ethyl)benzamide]
- melting point: 140 to 142 °C

SMILES: CCNC(=O)NS(=O)(=O)N1CCC(CCNC(=O)c2cc(Cl)ccc2OC)CC1 [Example 8, 5-Chloro-2-methoxy-N-(2-(1-(3-ethylureidosulfonyl)piperidin-4-yl)ethyl)benzamide]
- Remaining shortening of the APD90 under hypoxia in percent [1]: 54%
- hSUR1/hKir6.2 blockade at 0.1 μM (hSUR1/hKir6.2): 8%
- hSUR1/hKir6.2 blockade at 1 μM (hSUR1/hKir6.2): 55%
- hSUR1/hKir6.2 blockade at 10 μM (hSUR1/hKir6.2): 102%

SMILES: COc1ccc(Cl)cc1C(=O)NCCC1CCN(S(=O)(=O)NC(=S)NC2CCCCC2)CC1 [Example 6, 5-Chloro-2-methoxy-N-(2-(1-(3-cyclohexylthioureidosulfonyl)piperidin-4-yl)ethyl)benzamide]
- melting point: 146 to 148 °C

SMILES: COc1ccc(Cl)cc1C(=O)NCCC1CCN(S(=O)(=O)NC(=S)NC2CC2)CC1 [Example 5, 5-Chloro-2-methoxy-N-(2-(1-(3-cyclopropylthioureidosulfonyl)piperidin-4-yl)ethyl)benzamide]
- melting point: 144 to 145 °C

SMILES: CNC(=S)NS(=O)(=O)N1CCC(CCNC(=O)c2cc(Cl)ccc2OC)CC1 [Example 1, 5-Chloro-2-methoxy-N-(2-(1-(3-methylthioureidosulfonyl)piperidin-4-yl)ethyl)benzamide]
- Remaining shortening of the APD90 under hypoxia in percent [1]: 80%
- hSUR1/hKir6.2 blockade at 0.1 μM (hSUR1/hKir6.2): <1%
- hSUR1/hKir6.2 blockade at 1 μM (hSUR1/hKir6.2): 2%
- hSUR1/hKir6.2 blockade at 10 μM (hSUR1/hKir6.2): 41%

SMILES: COc1ccc(Cl)cc1C(=O)NCCC1CCN(S(=O)(=O)NC(=S)NC(C)C)CC1 [Example 4, 5-Chloro-2-methoxy-N-(2-(1-(3-isopropylthioureidosulfonyl)piperidin-4-yl)ethyl)benzamide]
- Hypoxic coronary flow compared with the control in percent (guinea pig heart): 61%
- Remaining shortening of the APD90 under hypoxia in percent [1]: 54%
- hSUR1/hKir6.2 blockade at 0.1 μM (hSUR1/hKir6.2): 2%
- hSUR1/hKir6.2 blockade at 1 μM (hSUR1/hKir6.2): 53%
- hSUR1/hKir6.2 blockade at 10 μM (hSUR1/hKir6.2): 89%
